# Laboratory results taken from article PMC3484517 (The Korean Journal of Physiology & Pharmacology : Official …, 2012).
# Read-outs that look alike come from different tables or passages of the source.
# Key:
# [1] = system: ECG intervals (RR, PR, QRS, QT); conditions: adult outpatient population (n=1,048); cited from earlier work
# KCNQ1/KCNE1 (IKs) = KCNQ1/KCNE1 (IKs) (Homo sapiens, UniProt P51787); assay: whole-cell patch clamp of IKs in KCNQ1/KCNE1-cotransfected HEK293 cells; format: cell-based
# Chain of KCNQ1/KCNE1 (IKs) (P51787 whole entry): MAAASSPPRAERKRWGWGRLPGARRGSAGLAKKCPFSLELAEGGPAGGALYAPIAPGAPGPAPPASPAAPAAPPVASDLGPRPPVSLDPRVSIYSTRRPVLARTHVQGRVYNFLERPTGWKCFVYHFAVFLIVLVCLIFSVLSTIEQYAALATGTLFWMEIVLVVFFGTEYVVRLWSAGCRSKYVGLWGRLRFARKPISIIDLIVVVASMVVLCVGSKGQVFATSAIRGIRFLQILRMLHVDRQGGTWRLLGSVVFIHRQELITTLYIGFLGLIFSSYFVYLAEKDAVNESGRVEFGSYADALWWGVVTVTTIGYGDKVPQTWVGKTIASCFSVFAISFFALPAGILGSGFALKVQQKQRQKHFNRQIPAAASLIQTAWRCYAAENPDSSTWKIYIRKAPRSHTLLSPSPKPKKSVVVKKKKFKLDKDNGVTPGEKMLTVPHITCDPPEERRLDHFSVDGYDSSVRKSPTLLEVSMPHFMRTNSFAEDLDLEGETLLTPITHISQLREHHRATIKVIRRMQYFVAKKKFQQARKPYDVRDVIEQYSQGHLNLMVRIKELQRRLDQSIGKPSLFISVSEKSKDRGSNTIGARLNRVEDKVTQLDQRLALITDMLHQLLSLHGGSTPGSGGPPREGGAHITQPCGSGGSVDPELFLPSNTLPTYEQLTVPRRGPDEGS
# [2] = system: isolated guinea-pig atria; conditions: spontaneously beating isolated guinea-pig atria; cited from earlier work
# hERG K+ channel = hERG K+ channel (Homo sapiens, UniProt Q12809); assay: whole-cell patch clamp of hERG; format: cell-based
# Chain of hERG K+ channel (Q12809 whole entry): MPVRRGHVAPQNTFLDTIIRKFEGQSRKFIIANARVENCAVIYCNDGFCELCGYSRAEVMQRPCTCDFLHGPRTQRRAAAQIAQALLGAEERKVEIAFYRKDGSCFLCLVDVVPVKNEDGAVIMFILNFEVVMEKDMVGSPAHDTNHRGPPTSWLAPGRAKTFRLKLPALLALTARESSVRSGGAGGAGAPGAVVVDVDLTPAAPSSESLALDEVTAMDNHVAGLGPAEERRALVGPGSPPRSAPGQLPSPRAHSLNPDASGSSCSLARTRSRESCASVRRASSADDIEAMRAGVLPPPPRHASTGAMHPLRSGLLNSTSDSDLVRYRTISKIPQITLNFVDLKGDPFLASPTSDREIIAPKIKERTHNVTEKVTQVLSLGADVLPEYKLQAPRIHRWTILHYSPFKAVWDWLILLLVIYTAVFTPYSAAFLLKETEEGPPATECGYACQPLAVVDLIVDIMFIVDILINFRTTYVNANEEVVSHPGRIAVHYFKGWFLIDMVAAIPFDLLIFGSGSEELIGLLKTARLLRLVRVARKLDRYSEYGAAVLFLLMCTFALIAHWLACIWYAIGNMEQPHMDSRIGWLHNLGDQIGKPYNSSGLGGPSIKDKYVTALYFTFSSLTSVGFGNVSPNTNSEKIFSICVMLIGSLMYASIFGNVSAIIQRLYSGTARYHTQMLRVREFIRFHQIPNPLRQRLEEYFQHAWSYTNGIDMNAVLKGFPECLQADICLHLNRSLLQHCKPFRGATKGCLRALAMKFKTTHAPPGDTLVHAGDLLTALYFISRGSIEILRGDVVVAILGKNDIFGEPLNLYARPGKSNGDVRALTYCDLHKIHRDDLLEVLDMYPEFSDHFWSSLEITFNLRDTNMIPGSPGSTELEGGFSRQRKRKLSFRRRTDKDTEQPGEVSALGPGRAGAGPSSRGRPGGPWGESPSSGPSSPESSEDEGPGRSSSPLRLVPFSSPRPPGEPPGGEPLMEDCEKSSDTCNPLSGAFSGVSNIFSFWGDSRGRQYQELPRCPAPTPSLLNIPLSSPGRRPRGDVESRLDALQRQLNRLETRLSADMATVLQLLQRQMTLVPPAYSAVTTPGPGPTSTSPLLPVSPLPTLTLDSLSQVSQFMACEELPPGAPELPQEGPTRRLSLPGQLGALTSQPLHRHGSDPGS
# hERG K+ channel (IKr) = hERG K+ channel (IKr) (Homo sapiens, UniProt Q12809); assay: whole-cell patch clamp of hERG; format: cell-based; conditions: human, HEK293 cells transiently transfected with hERG, pH 7.4
# Chain of hERG K+ channel (IKr) (Q12809 whole entry): as above
# KCNJ2 (IK1) = molecular target: T1, KCNJ2 (IK1) (Homo sapiens, UniProt P63252); assay: whole-cell patch clamp of IK1 in KCNJ2-transfected HEK293 cells; format: cell-based
# T1 sequence (P63252 1-427): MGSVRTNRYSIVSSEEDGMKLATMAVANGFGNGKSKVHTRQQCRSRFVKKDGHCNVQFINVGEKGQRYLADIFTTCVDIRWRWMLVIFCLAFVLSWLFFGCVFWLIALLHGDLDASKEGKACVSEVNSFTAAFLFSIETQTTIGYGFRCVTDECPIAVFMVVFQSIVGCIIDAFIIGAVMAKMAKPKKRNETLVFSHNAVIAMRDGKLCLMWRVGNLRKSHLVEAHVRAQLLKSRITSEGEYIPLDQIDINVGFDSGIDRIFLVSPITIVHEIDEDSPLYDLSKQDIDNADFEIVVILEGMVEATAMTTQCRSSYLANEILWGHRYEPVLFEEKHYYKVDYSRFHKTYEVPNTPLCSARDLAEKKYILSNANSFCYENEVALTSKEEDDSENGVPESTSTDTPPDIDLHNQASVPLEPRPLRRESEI
structure (smiles),measurement,setting,value
CN[C@H]1CC[C@@H](c2ccc(Cl)c(Cl)c2)c2ccccc21 [Sertraline],"effect on RR, PR, QRS, and QT intervals",[1],no significant effect
same,IC50,KCNQ1/KCNE1 (IKs),12.3 ± 1.3 µM
same,reduction of IKs amplitude,"KCNQ1/KCNE1 (IKs); 1 µM sertraline, n=4",1.5±3.8%
same,reduction of IKs amplitude,"KCNQ1/KCNE1 (IKs); 3 µM sertraline, n=4",10.3±2.5%
same,reduction of IKs amplitude,"KCNQ1/KCNE1 (IKs); 10 µM sertraline, n=4",36.6±3.5%
same,reduction of IKs amplitude,"KCNQ1/KCNE1 (IKs); 30 µM sertraline, n=4",84.0±5.6%
same,"Hill coefficient, IKs inhibition","KCNQ1/KCNE1 (IKs); KCNQ1/KCNE1 HEK293 cells, n=4",2.5±0.1
same,IC50,"KCNQ1/KCNE1 (IKs); human, HEK293 cells transiently cotransfected with KCNQ1/KCNE1, pH 7.4",15.2 µM
same,effect on rate of contractions and contractile force,[2],dose-dependent decrease in the rate contractions and in the contractile force
same,IC50,hERG K+ channel,700 nM
same,"Hill coefficient, hERG current inhibition","hERG K+ channel; HEK293 cells, Hill fit, n=4",1.3±0.02
same,inhibition at 1 µM,hERG K+ channel (IKr),7.9 ± 1.9%
same,inhibition at 3 µM,hERG K+ channel (IKr),24.2 ± 1.9%
same,inhibition at 10 µM,hERG K+ channel (IKr),60.1 ± 2.7%
same,inhibition at 30 µM,hERG K+ channel (IKr),86.4 ± 1.4%
same,IC50,KCNJ2 (IK1),10.5 µM
same,reduction of IK1 amplitude,"KCNJ2 (IK1); 1 µM sertraline, n=4",0.7±2.7%
same,reduction of IK1 amplitude,"KCNJ2 (IK1); 3 µM sertraline, n=4",9.4±1.1%
same,reduction of IK1 amplitude,"KCNJ2 (IK1); 10 µM sertraline, n=4",45.7±3.9%
same,reduction of IK1 amplitude,"KCNJ2 (IK1); 30 µM sertraline, n=4",92.5± 1.2%
same,"Hill coefficient, IK1 inhibition","KCNJ2 (IK1); KCNJ2 HEK293 cells, n=4",2.1±0.2
